The source of these data is ChEMBL document CHEMBL1201862, “PubChem BioAssay data set” (2004).

Some test systems named below: COLO 205; SK-MEL-5; HCT-116; IGROV-1; M14; HL-60; TK-10; SN12C; RXF 393; NCI-H23; SNB-75; SNB-19; HCT-15; 786-0; K562; SR; CCRF-CEM.
Assay in all cases: NCI anticancer screen, dose series, 48 h

Structures are written as SMILES.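 Values below derive from 48-hour exposures of cells grown in 96-well plates, with endpoints linearly interpolated between the two concentrations bracketing the appropriate inhibition level. The concentration for 50% growth inhibition is given as GI50.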 Calls of active or inactive are those of the source. No stated cut-off is given here; in the data, active = GI50 up to about 1.1 µM and inactive = higher.

Take `N#C/N=C(\N)NCCO`: the GI50 in the test on COLO 205 is 52.2 µM (inactive); in the test on SK-MEL-5, > 100 µM (inactive); in the test with HCT-116, > 100 µM (inactive); in the test with IGROV-1, > 100 µM (inactive); in the test with M14, > 100 µM (inactive); in the test on HL-60 it was > 100 µM (inactive). Further, the GI50 in the test on TK-10 is > 100 µM (inactive); in the test with SN12C, > 100 µM (inactive); in the test with RXF 393, 16.6 µM (inactive); in the test with NCI-H23, > 100 µM (inactive); with SNB-75, > 100 µM (inactive); in the test with SNB-19 it was > 100 µM (inactive). Besides, the GI50 was 38.7 µM in the test with HCT-15, 38.1 µM (inactive) in the test with 786-0, > 100 µM (inactive) in the test on K562 and 30.7 µM (inactive) with SR.
Turning to `c1ccc(OCc2nnc3n2N=C(c2ccccc2)CS3)cc1`, the GI50 in the test on SK-MEL-5, with HCT-116, in the test with IGROV-1, with M14, with HL-60 and with TK-10 was > 100 µM (inactive) each time. Further, the GI50 with SN12C was > 100 µM (inactive); with RXF 393, > 100 µM (inactive); in the test on NCI-H23, > 100 µM (inactive); in the test on SNB-75 it was 33 µM (inactive); with SNB-19, > 100 µM (inactive); in the test on HCT-15, more than 100 µM. Further, the GI50 with 786-0, in the test with K562, in the test on SR and in the test with CCRF-CEM was > 100 µM (inactive) in each case.
For `COc1ccc2c(c1)[n+]([O-])c(-c1ccc(C)cc1)c(N)[n+]2[O-]`, the GI50 is 20.2 µM (inactive) in the test on COLO 205; 35.8 µM (inactive) in the test with SK-MEL-5; > 100 µM (inactive) in the test on HCT-116; 43.3 µM (inactive) in the test on IGROV-1; 52.5 µM (inactive) in the test with M14; 43.9 µM (inactive) with HL-60. Further, the GI50 in the test with SN12C is > 100 µM (inactive); in the test with NCI-H23 it was 20.9 µM (inactive); in the test with SNB-75, 45.1 µM (inactive); in the test with SNB-19, > 100 µM (inactive); with HCT-15, 45.8 µM; in the test with 786-0, 70.8 µM (inactive). The GI50 is 67.1 µM (inactive) in the test with K562 and > 100 µM (inactive) in the test on SR.
As for `CCOC(=O)c1nc2ccc([N+](=O)[O-])cc2c2c1CCO2`, the GI50 with COLO 205, with SK-MEL-5, in the test on HCT-116, in the test with IGROV-1, with M14 and with HL-60 was > 100 µM (inactive) each time. Besides, the GI50 was > 100 µM (inactive) in the test on TK-10; > 100 µM (inactive) in the test on SN12C; > 100 µM (inactive) in the test with RXF 393; > 100 µM (inactive) in the test with NCI-H23; 41.3 µM (inactive) in the test with SNB-75; > 100 µM (inactive) with SNB-19. Besides, the GI50 is more than 100 µM in the test with HCT-15, > 100 µM (inactive) in the test on 786-0, > 100 µM (inactive) with K562 and > 100 µM (inactive) with CCRF-CEM.
Regarding `CC(C)CCS(=O)(=O)OCCCCOS(=O)(=O)CCC(C)C`, the GI50 in the test with COLO 205 was > 100 µM (inactive); in the test with HCT-116 it was > 100 µM (inactive); in the test with IGROV-1 it was > 100 µM (inactive); in the test on M14 it was 16.1 µM (inactive); in the test on HL-60, > 100 µM (inactive); in the test with TK-10, > 100 µM (inactive). Moreover, the GI50 with SN12C was > 100 µM (inactive); in the test with RXF 393, > 100 µM (inactive); in the test on NCI-H23, > 100 µM (inactive); with SNB-75 it was > 100 µM (inactive); with SNB-19, > 100 µM (inactive); with HCT-15, more than 100 µM. In addition, the GI50 with 786-0, with K562, with SR and with CCRF-CEM was > 100 µM (inactive) each time.
